Assay results published in US12465594B2 (Brown University, priority 2018, dated 2025).

Experiments:
[1] = system: NMDAR EPSCs in VTA dopamine neurons; experiment: Electrophysiology: CRF potentiation of NMDAR EPSCs in VTA slices; assay type: cell-based, mouse; settings: CRF 1 μM, VTA-DA neurons, acute brain slices
Text: Male and female mice (n=44; 6-10 weeks) were anesthetized with Euthasol (Butler-Schein). Brains were rapidly removed and placed in ice-cold NMDG-based artificial Cerebrospinal Fluid (aCSF) cutting solution containing (in mM): 92 NMDG, 20 HEPES, 25 glucose, 30 NaHCO3, 2.5 KCl, 1.2 NaPO4 saturated with 95% O2/5% CO2 with an osmolarity of 305-308 mOsm (Advanced Cell Diagnostics). The brain was cut in ice-cold NMDG solution to obtain horizontal VTA slices, 230 μm thick, using a Leica vibratome (Leica VT1200) and slices were incubated in warm NMDG solution (34° C.) for <5 minutes before being placed in a modified aCSF holding solution (in mM): 92 NaCl, 20 HEPES, 25 glucose, 30 NaHCO3, 2.5 KCl, 1.2 NaPO4 (305-308 mOsm). Slices were incubated at room temperature for at least 1 hour before recording.
Whole-cell patch clamp of the lateral VTA was performed under the guidance of IR-DIC optics on an Olympus BX5iWI microscope. Cells were patched with 1.8-3 MO resistance glass microelectrodes containing the following internal solution (in mM): 117 cesium methanesulfonate, 20 HEPES, 0.4 EGTA, 2.8 NaCl, 5 TEA-CI, 4 Mg-ATP, 0.4 Na-GTP, and 5 QX-314 (280-285 mOsm). Dopamine cells were identified by the following criteria: 1) large multipolar soma, 30-40 μm in diameter, 2) tonic firing of <4 Hz when cell attached, 3) large […] with negative voltage step (identified immediately following break in). […] Series resistance was monitored online. […]
For electrophysiology measures, excitatory post-synaptic currents (EPSCs) were normalized to 7 minute of averaged baseline responses, prior to drug application. […] Results are reported as M±SEM a in bar graphs comparing drug to vehicle and analyzed by a one-way ANOVA and post-hoc comparisons to vehicle were performed using a Bonferroni multiple comparisons correction measures (**p<0.01). […]
NMDAR excitatory postsynaptic currents (EPSCs) were recorded from VTA dopamine (DA) neurons in acute brain slices from male and female mice. […]

[2] = target: HEK293 cells expressing FLAG-CRFBP(10 kD)-HA-CRF2α (Homo sapiens, UniProt P24387+Q13324); settings: 384-well format
Sequence of HEK293 cells expressing FLAG-CRFBP(10 kD)-HA-CRF2α (P24387+Q13324 fused): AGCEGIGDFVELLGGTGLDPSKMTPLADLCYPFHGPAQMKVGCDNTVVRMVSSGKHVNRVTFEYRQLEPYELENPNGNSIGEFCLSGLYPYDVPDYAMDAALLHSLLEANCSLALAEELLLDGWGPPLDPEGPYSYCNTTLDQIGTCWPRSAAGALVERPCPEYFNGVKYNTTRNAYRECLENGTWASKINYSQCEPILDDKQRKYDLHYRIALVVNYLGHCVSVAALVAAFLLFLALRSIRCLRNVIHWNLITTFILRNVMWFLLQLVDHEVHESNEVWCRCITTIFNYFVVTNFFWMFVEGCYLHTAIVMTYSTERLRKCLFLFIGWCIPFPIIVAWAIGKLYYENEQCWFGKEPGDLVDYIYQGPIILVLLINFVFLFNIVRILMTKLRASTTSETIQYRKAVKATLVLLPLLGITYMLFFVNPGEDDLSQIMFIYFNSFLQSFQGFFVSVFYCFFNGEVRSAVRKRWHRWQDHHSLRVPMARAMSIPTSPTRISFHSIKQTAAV

Substance: corticotropin releasing factor [CRF, reference compound]
- Effect of CRF on NMDAR EPSCs [1]: potentiated NMDA receptor EPSCs
- EC80, CRF-induced intracellular calcium release [2]: 1000 nM
